Test system: human BCL11A erythroid enhancer
Test: Tiled pooled CRISPR-Cas9 screen for in situ functional mapping of the human BCL11A erythroid enhancer (HbF-high/HbF-low sort, sgRNA deep sequencing)
Assay type: cell-based
Details: for Enrichment Score: HbF enrichment, human library NGG and NGG RC sgRNAs filtered for enrichment score >0.259; for Dropout Score: human library sgRNAs that produced HbF enrichment over 0.259
Summary of the method: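 HUDEP-2 cells stably expressing Cas9 transduced at low multiplicity with tiled sgRNA library covering +55/+58/+62 DHS, selected with blasticidin/puromycin, expanded one week then differentiated one week. Top and bottom 10% HbF-stained cells FACS-sorted; sgRNA representation determined by deep sequencing of genomic DNA.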

Row | Substance | Enrichment Score | Dropout Score
1 | BCL_01638_H_D58 (guide CATCGGTGGCCGTTTGCCCANGGRC; listed as DNA, chemistry not given here) | 0.635 | −0.5928
2 | BCL_00225_H_D62 (guide ACCTGTAATCCCAGCACTTTNGG; listed as DNA, chemistry not given here) | 0.3328 | −8.821
3 | BCL_02005_H_exon2 (guide GTTCATCTGGCACTGCCCACNGGRC; listed as DNA, chemistry not given here) | 3.202 | −1.837
4 | BCL_01449_H_D55 (guide GTGCTTGGTCGGCACTGATANGGRC; listed as DNA, chemistry not given here) | 1.134 | −0.6101
5 | BCL_01669_H_D58 (guide CCAGCTGAAGAAAGAACATTNGGRC; listed as DNA, chemistry not given here) | 0.3196 | −0.00075
6 | BCL_01443_H_D55 (guide GGCACACCCTGTGATCTTGTNGGRC; listed as DNA, chemistry not given here) | 0.4181 | 0.2579
7 | BCL_01448_H_D55 (guide TGTGCTTGGTCGGCACTGATNGGRC; listed as DNA, chemistry not given here) | 1.348 | −0.4953
8 | BCL_02002_H_exon2 (guide AAAATAAGAATGTCCCCCAANGGRC; listed as DNA, chemistry not given here) | 0.505 | −0.4259
9 | BCL_01637_H_D58 (guide CCATCGGTGGCCGTTTGCCCNGGRC; listed as DNA, chemistry not given here) | 0.669 | −0.5016
10 | BCL_02001_H_exon2 (guide CCACAGCTTTTTCTAAGCAGNGGRC; listed as DNA, chemistry not given here) | 0.4913 | −0.2495
11 | BCL_01461_H_D55 (guide GCCCTGCTGGTTATCACTGTNGGRC; listed as DNA, chemistry not given here) | 0.5924 | −0.5115
12 | BCL_00064_H_D55 (guide TGCCAACAGTGATAACCAGCNGG; listed as DNA, chemistry not given here) | 0.5108 | −0.3581
13 | BCL_01641_H_D55 (guide CGGTGGCCGTTTGCCCAGGGNGGRC; listed as DNA, chemistry not given here) | 0.282 | −0.4633
14 | BCL_00252_H_exon2 (guide GCCCGTTGGGAGCTCCAGAANGG; listed as DNA, chemistry not given here) | 0.5453 | 0.09212
15 | BCL_00181_H_D58 (guide CCTTCCGAAAGAGGCCCCCCNGG; listed as DNA, chemistry not given here) | 0.3399 | 0.2621
16 | BCL_01790_H_D62 (guide TTGCCCGGGCTGGAATGCAANGGRC; listed as DNA, chemistry not given here) | 0.4673 | −8.123

Row | Substance | Enrichment Score | Dropout Score
17 | BCL_02008_H_exon2 (guide AGGAGGTCATGATCCCCTTCNGGRC; listed as DNA, chemistry not given here) | 0.3495 | −0.4482
18 | BCL_02011_H_exon2 (guide CTGGAGCTCCCAACGGGCCGNGGRC; listed as DNA, chemistry not given here) | 0.6044 | 0.7912
19 | BCL_01438_H_D55 (guide TACCAGGATGATGCAATGCTNGGRC; listed as DNA, chemistry not given here) | 0.9129 | −0.4122
20 | BCL_00065_H_D55 (guide GCCAACAGTGATAACCAGCANGG; listed as DNA, chemistry not given here) | 0.4886 | −0.5415
21 | BCL_01998_H_exon2 (guide TTTCATCTCGATTGGTGAAGNGGRC; listed as DNA, chemistry not given here) | 0.3489 | −0.1426
22 | BCL_01794_H_D62 (guide CAGGCATGTATTACCATGCCNGGRC; listed as DNA, chemistry not given here) | 0.2801 | −1.011
23 | BCL_00135_H_D58 (guide CCATCTCCCTAATCTCCAATNGG; listed as DNA, chemistry not given here) | 0.2985 | −0.04502
24 | BCL_00051_H_D55 (guide GGAGGTGTGGAGGGGATAACNGG; listed as DNA, chemistry not given here) | 0.3141 | −0.1655
25 | BCL_00184_H_D58 (guide CCTGGGCAAACGGCCACCGANGG; listed as DNA, chemistry not given here) | 0.3155 | −0.5414
26 | BCL_01626_H_D55 (guide TTTGGCCTCTGATTAGGGTGNGGRC; listed as DNA, chemistry not given here) | 1.336 | −0.2724
27 | BCL_01620_H_D58 (guide TTTATCACAGGCTCCAGGAANGGRC; listed as DNA, chemistry not given here) | 1.38 | −0.9481
28 | BCL_01622_H_D58 (guide GAAGGGTTTGGCCTCTGATTNGGRC; listed as DNA, chemistry not given here) | 1.378 | −0.6695
29 | BCL_00187_H_D58 (guide ATCAGAGGCCAAACCCTTCCNGG; listed as DNA, chemistry not given here) | 2.122 | −0.7444
30 | BCL_00257_H_exon2 (guide TGCCAGATGAACTTCCCATTNGG; listed as DNA, chemistry not given here) | 1.945 | −1.9609
31 | BCL_01497_H_D55 (guide AAGAGGCCACTGAGTCCTTTNGGRC; listed as DNA, chemistry not given here) | 0.43 | 0.4562
32 | BCL_00239_H_D62 (guide GCCTGTAATCTCAGCTACTCNGG; listed as DNA, chemistry not given here) | 1.916 | −6.031

Source: patent US12497610B2, “Functional genomics using CRISPR-CAS systems for saturating mutagenesis of non-coding elements, compositions, methods, libraries and applications thereof” (THE BROAD INSTITUTE, INC., priority 2015, dated 2025)
